Legend:
[1] = biological target: T1, mTLR9ect (extracellular domain of murine TLR9 fused to human IgG1-Fc) (Mus musculus, UniProt Q9EQU3); assay: SPR biosensor analysis of mTLR9ect binding to immobilized CpG-DNA
T1 construct: mTLR9ect (aa 1-816); made in house
T1 sequence (Q9EQU3 26-816): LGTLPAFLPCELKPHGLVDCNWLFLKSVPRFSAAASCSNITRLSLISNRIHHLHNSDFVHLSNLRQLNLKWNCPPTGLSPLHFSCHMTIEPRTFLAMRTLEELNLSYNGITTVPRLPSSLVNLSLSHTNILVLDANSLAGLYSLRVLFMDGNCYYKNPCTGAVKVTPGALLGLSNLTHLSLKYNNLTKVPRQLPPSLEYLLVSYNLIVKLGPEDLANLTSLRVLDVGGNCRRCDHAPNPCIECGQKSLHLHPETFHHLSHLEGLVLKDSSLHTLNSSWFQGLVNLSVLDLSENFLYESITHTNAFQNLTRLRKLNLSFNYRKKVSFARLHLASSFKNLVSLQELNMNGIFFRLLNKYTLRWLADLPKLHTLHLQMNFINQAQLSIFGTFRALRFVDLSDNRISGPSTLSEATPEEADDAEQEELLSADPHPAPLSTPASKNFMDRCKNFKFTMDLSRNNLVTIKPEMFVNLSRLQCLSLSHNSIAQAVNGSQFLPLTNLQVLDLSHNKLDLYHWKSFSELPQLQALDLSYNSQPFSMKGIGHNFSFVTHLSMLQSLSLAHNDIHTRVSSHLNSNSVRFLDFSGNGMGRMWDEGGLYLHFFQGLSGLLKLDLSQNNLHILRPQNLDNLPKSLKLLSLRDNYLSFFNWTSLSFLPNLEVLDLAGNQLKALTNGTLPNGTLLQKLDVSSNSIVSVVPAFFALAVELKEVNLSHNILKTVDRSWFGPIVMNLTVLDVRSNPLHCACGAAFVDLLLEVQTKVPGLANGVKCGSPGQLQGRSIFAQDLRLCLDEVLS
Description: (§1) Protein. Recombinant fusion proteins consisting of the extracellular domain of Toll-like receptors mTLR9ect (aa 1-816), mTLR9ect-mut (see below) (aa 1-816), hTLR9ect (aa 1-815) and mTLR2ect (aa 1-587) fused to human IgG1-Fc were constructed by amplifying the corresponding extracellular domain and ligating the fragment in frame into a pcDNA3.1(−) (Invitrogen, Netherlands) vector containing the coding sequence for human IgG1-Fc. Fusion proteins were stably expressed in HEK 293 cells and purified from cell lysates by protein A affinity chromatography.
(§2) SPR biosensor analysis. Real-time binding of TLR9 or TLR2 was measured by surface plasmon resonance biosensor technology using the BiaCore X system (Uppsala, Sweden). For analysis of TLR9 and TLR2 interaction, biotinylated CpG-DNA and non-CpG-DNA, or biotinylated Pam3CysK4 and PHCK4, respectively, were loaded in running buffer (50 mM MES, 150 mM NaCl, 1 mM MgCl2 at pH 6.5) on SA chips precoated with streptavidin (Biacore AB, Uppsala, Sweden). Non-CpG-DNA or PHCK4 (Wiesmuller K H et al. (1989) Vaccine 7:29-33) served as reference for CpG-DNA and Pam3CysK4 interaction (structure or sequence in Table 1). […] TLR proteins were introduced at 200 nM or as indicated in 40 μl running buffer at a flow rate of 10 μl/min. Binding was measured at 25° C. for 750 s (delay time 300 s). […] Sensorgrams were recorded and kinetic data were calculated by the BiaCore Evaluation program (Biacore, version 3.0.1). Regeneration of the chip was performed by injection of 10 μl 50 mM NaOH, 1 M NaCl and extensive re-equilibration.
For detailed analysis of TLR9-CpG-DNA interaction, surface plasmon resonance (SPR) biosensor based technology was used with CpG- and non-CpG-DNA immobilized onto separate flow cells of a streptavidin-coated chip. Under these settings non-CpG-DNA served as reference for specific binding (see Methods). Binding of mTLR9ect to DNA was CpG-sequence-specific and increased in a dose-dependent manner. […] Using the 1:1 binding model of the BioEvaluation software as fitting algorithm and on the basis of four different mTLR9ect concentrations ranging from 50 to 300 nM, a dissociation constant (Kd) of 200 nM was obtained with low chi-squared residuals (4,76). […] Weber AN et al. (2003) Nat. Immunol. 4:794-800. Furthermore the concentration of CpG-DNA 1668 (SEQ ID NO:1) for half-maximal activation of murine TLR9 has been recently calculated as 70 nM which correlates well with the KD obtained here. Bauer S et al. (2001) Proc. Natl. Acad. Sci. U.S.A. 98:9237-9242. […] This difference in affinity correlates with the observed species-specific variance in CpG-motif recognition, as well as activation potential. Bauer S et al. (2001) Proc. Natl. Acad. Sci. U.S.A. 98:9237-9242.

[2] = biological target: T2, mTLR9ect (Mus musculus, UniProt Q9EQU3); assay: UV-crosslinking of mTLR9ect with 32P-labeled DNA and SDS-PAGE; assay type: binding, murine; conditions: SDS-PAGE, complex at 150 kDa
T2 construct: mTLR9ect (aa 1-816); made in house
T2 sequence (Q9EQU3 26-816): T1 sequence (Q9EQU3 26-816)
Description: FIG. 1B is an image of an SDS-PAGE gel depicting purified proteins from FIG. 1A UV-crosslinked with ^32P-labeled CpG- or non-CpG-DNA, separated by SDS-PAGE, and autoradiographed. TLR9 and free DNA are highlighted.
Bauer S et al. (2001) Proc. Natl. Acad. Sci. U.S.A. 98:9237-9242. To assess binding of TLR9 to CpG-DNA, a recombinant fusion protein consisting of the extracellular domain of murine TLR9 and human IgG 1-Fc (mTLR9ect) was constructed. The extracellular domain of murine TLR2 also fused to IgG1-Fc (mTLR2ect) served as control. Proteins were expressed in HEK 293 cells and purified via protein A affinity chromatography (FIG. 1A). Under denaturing and non-reducing conditions mTLR9ect and mTLR2ect are approximately 10% in a monomeric and 90% in a dimeric form. Dimerization of the proteins is probably mediated by the IgG 1-Fc fusion partner which forms disulfide bonds (FIG. 1A). Initially, binding of mTLR9ect to radiolabeled DNA was determined by UV-crosslinking and subsequent SDS-PAGE.

[3] = biological target: T3, human TLR9ect (Homo sapiens, UniProt Q9NR96); assay: SPR biosensor analysis of human TLR9ect binding to CpG-DNA 2006; conditions: non-CpG-DNA 2006GC as control
T3 construct: hTLR9ect (aa 1-815); made in house
T3 sequence (Q9NR96 26-815): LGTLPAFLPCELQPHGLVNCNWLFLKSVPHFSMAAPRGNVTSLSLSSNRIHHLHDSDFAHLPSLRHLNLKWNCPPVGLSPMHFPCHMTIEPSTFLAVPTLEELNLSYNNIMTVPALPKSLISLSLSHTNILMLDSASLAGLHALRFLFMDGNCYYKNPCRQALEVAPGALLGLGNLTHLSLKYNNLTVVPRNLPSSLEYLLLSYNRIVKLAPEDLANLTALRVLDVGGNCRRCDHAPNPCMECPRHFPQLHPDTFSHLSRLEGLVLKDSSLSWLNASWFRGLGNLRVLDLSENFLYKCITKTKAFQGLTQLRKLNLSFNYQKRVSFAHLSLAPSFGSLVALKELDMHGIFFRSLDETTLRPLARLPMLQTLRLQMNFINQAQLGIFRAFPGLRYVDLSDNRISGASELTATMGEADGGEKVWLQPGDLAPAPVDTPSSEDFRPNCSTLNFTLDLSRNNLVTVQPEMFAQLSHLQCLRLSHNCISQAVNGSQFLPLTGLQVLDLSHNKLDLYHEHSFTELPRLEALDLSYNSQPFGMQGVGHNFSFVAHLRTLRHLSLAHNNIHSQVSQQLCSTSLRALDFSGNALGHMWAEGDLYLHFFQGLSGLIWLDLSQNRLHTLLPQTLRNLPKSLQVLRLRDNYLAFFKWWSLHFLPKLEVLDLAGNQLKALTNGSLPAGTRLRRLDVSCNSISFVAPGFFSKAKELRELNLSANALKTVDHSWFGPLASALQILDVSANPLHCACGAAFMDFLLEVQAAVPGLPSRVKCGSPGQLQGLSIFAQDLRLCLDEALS
Description: as §1
SPR biosensor analysis. Real-time binding of TLR9 or TLR2 was measured by surface plasmon resonance biosensor technology using the BiaCore X system (Uppsala, Sweden). For analysis of TLR9 and TLR2 interaction, biotinylated CpG-DNA and non-CpG-DNA, or biotinylated Pam3CysK4 and PHCK4, respectively, were loaded in running buffer (50 mM MES, 150 mM NaCl, 1 mM MgCl2 at pH 6.5) on SA chips precoated with streptavidin (Biacore AB, Uppsala, Sweden). Non-CpG-DNA or PHCK4 (Wiesmuller K H et al. (1989) Vaccine 7:29-33) served as reference for CpG-DNA and Pam3CysK4 interaction (structure or sequence in Table 1). […] Binding was measured at 25° C. for 750 s (delay time 300 s). […] Sensorgrams were recorded and kinetic data were calculated by the BiaCore Evaluation program (Biacore, version 3.0.1). […]

[4] = biological target: T4, TLR9-CpG-DNA interaction (Mus musculus, UniProt Q9EQU3); assay: SPR biosensor analysis of inhibitors on TLR9-CpG-DNA interaction; assay type: binding, murine; conditions: SPR, 200 nM TLR9, immobilized CpG-DNA 1668
T4 construct: mTLR9ect (aa 1-816); made in house
T4 sequence (Q9EQU3 26-816): T1 sequence (Q9EQU3 26-816)
Method: Biotinylated CpG-DNA 1668 (SEQ ID NO:1) and non-CpG-DNA 1668GC (SEQ ID NO:3) were immobilized on streptavidin sensor chip flow cells 1 and 2, respectively.
FIG. 2B is a graph depicting SPR biosensor analysis of quinoquine (QC) on TLR9-PAMP interaction. Biotinylated CpG-DNA 1668 (SEQ ID NO:1) and non-CpG-DNA 1668GC (SEQ ID NO:3) were immobilized on streptavidin sensor chip flow cells 1 and 2, respectively. 200 nM TLR9 and indicated concentrations of quinoquine were injected and sensorgrams recorded.
as §2

[5] = test system: murine TLR9; assay: NF-κB luciferase assay, HEK 293 cells transfected with murine TLR9; assay type: cell-based; conditions: TLR9-transfected HEK 293 cells, 1 μM CpG-DNA, inhibitor added 15 min prior to stimulation
Method: Activation is expressed as fold induction compared to no stimulation. NF-κB luciferase assay. For monitoring transient NF-κB activation, 3×10^6 HEK 293 cells were electroporated at 200 volt and 950 μF with 20 ng of a NF-κB luciferase reporter plasmid (kindly provided by Patrick Baeuerle, Munich, Germany) and 1 μg mTLR2 (kindly provided by Tularik, Inc., South San Francisco, USA), mTLR9, or mTLR9-mut expression plasmid. Cells were seeded at 10^5 cells per well and after overnight culture stimulated with 1 μM phosphorothioated CpG-DNA 1668 (SEQ ID NO:1), 1 μM non-CpG-DNA 1668GC (SEQ ID NO:3), 1 μg/ml Pam[…][…] or 1 μg/ml PHCK4 for further 8 hours. […] Stimulated cells were lysed using reporter lysis buffer (Promega, Mannheim, Germany) and lysates were assayed for luciferase activity using a Berthold luminometer (Wildbad, Germany) according to the manufacturer's instruction.

Compound: 5′-TCCATGAGCTTCCTGATGCT-3′ (chemistry not given here) [non-CpG-DNA 1668GC, non-CpG control oligodeoxynucleotide]
- release of bound mTLR9ect by free injected DNA ([1]; competition, free DNA added in dissociation phase): did not lead to the release
- effect of pre-incubation of mTLR9ect with DNA on binding to chip-immobilized CpG-DNA ([1]; pre-incubation prior to SPR analysis): no inhibitory effect
- binding of mTLR9ect to radiolabeled DNA [2]: bound only weakly

Compound: 5′-TCGTCGTTTTGTCGTTTTGTCGTT-3′ [CpG-DNA 2006]
- interaction with human TLR9ect [3]: specifically interacted

Compound: CO/C1=C\C(C)=C\[C@@H](C)[C@@H](O)[C@@H](C)C/C(C)=C/C=C/[C@H](OC)[C@@H]([C@@H](C)[C@@H](O)[C@H](C)[C@@]2(O)C[C@@H](O)[C@H](C)[C@@H](C(C)C)O2)OC1=O [bafilomycin A1]
- inhibition of binding of TLR9 to CpG-DNA [4]: did not influence
- inhibition of TLR9-driven NF-κB activation [5]: inhibited cell activation

From US20050100983A1, “Cell-free methods for identifying compounds that affect toll-like receptor 9 (TLR9) signaling” (Coley Pharmaceutical GmbH, priority 2003, published 2005)
